Assay results as given in article PMC11544713, “The Application of Untargeted Metabolomic Approaches for the Search of Common Bioavailable Metabolites in Human Plasma Samples from Lippia citriodora and Olea europaea Extracts” (Journal of Agricultural and Food Chemistry, 2024).

Assay: Acute intervention: nutrikinetics of plasma metabolites after ingestion of O. europaea extract (untargeted HPLC-ESI-QTOF-MS)
Procedure: A total of 25 healthy individuals participated, with an average age of 27 ± 9 years and a mean body mass index (BMI) of 23 ± 3 kg/m^2. None of the participants were taking any medications or nutritional supplements nor did they have any chronic diseases or gastrointestinal issues. The sample size was established based on findings from previous bioavailability research.[14] All participants provided informed consent before participating in the study.
The intervention study was carried out at Miguel Hernández University. Following an overnight fast, the volunteers were categorized into the subsequent groups: a subgroup to evaluate the LC leaf extract (n = 8), another for the OE leaf extract (n = 8), and the placebo subgroup (n = 9). This was a double-blind study, in which sample collection and treatment were carried out uniformly across all three subgroups.
Water was provided ad libitum. Prior to the ingestion of the capsule, a nurse inserted a cannula into the ulnar vein of each volunteer’s nondominant arm, and blood samples were drawn into EDTA-coated tubes at baseline (t = 0). Blood samples were then collected at 0.5, 1, 2, 4, 6, 8, and 10 h after the consumption of the 500 mg capsule. Plasma was separated through centrifugation (10 min at 3000 rpm and 4 °C) and stored at −80 °C until further analysis.
Plasma samples were initially treated using a mixture of methanol and ethanol (50:50; v:v) to remove proteins, following previously reported protocols.[19] During the sample treatment, pooled quality controls (pooled-QC) were prepared by combining equal aliquots from each sample. These QC samples were processed by using the same protocols as the experimental biological samples.
A reversed-phase analytical C18 column (Agilent Zorbax Eclipse Plus, 1.8 μm, 4.6 × 150 mm^2) with a protective cartridge with the same packing was used. MS data were acquired in negative ionization mode, operating in full scan across a mass-to-charge ratio (m/z) range of 50–1700. The analytical method used was adapted from that described by Villegas-Aguilar et al.[19]
Metabolite nutrikinetics were studied using PKSolver, an add-in program for pharmacokinetic data analysis in Microsoft Excel. The time to reach the maximum concentration (observed Tmax) was calculated for each significant metabolite. As an untargeted metabolomic approach was used to detect the circulating metabolites, these were not quantified. Therefore, the maximum concentration (Cmax) and area under the curve (AUC) parameters were calculated in a relative way by using the deconvoluted chromatographic areas. […] Statistical differences were determined by unpaired t tests. All p values less than 0.05 were considered statistically significant.

[1] = 0.5 h after O. europaea extract
[2] = human plasma, 500 mg capsule of O. europaea (OE) extract, oral, mean ± SD

Compound | mean chromatographic area in plasma, T0.5 [1] | mean chromatographic area in plasma, T1 (1 h after O. europaea extract) | mean chromatographic area in plasma, T2 (2 h after O. europaea extract) | mean chromatographic area in plasma, T4 (4 h after O. europaea extract) | mean chromatographic area in plasma, T6 (6 h after O. europaea extract) | mean chromatographic area in plasma, T8 (8 h after O. europaea extract) | mean chromatographic area in plasma, T10 (10 h after O. europaea extract) | Cmax: relative maximum plasma level [2] | observed Tmax: time required to reach Cmax [2] [h] | Cmax: relative maximum plasma level (human, in vivo, po, 500 mg) | observed Tmax: time required to reach Cmax (human, in vivo, po, 500 mg) [h] | mean chromatographic area in plasma, T0.5 (in vivo) | mean chromatographic area in plasma, T1 (in vivo) | mean chromatographic area in plasma, T2 (in vivo) | mean chromatographic area in plasma, T4 (in vivo) | mean chromatographic area in plasma, T6 (in vivo) | mean chromatographic area in plasma, T8 (in vivo) | mean chromatographic area in plasma, T10 (in vivo)
OC[C@H]1O[C@@H](OCc2ccoc2)[C@H](O)[C@@H](O)[C@@H]1O (single isomer, unassigned; isomer 1) [3-furanmethanol glucoside isomer 1, 3-furanmethanol glucoside] | 27 | 200 | 184 | 107 | 17 | 0 | 0 | 236 ± 104 relative chromatographic area | 1.6 ± 0.5 |  |  |  |  |  |  |  |  | 
O=c1cc(-c2ccc(O)cc2)oc2c([C@@H]3O[C@H](CO)[C@@H](O)[C@H](O)[C@H]3O)c(O)c([C@@H]3O[C@H](CO)[C@@H](O)[C@H](O)[C@H]3O)c(O)c12 [vicenin-2] |  |  |  |  |  |  |  |  |  | 137 ± 59 relative chromatographic area | 1 ± 0 | 34 | 137 | 46 | 0 | 0 | 0 | 0
O=C(/C=C/C1=CC(=O)C(=O)C=C1)OC1CC(O)(C(=O)O)CC(O)C1O (centres unmarked) [chlorogenoquinone] | 181 | 315 | 154 | 12 | 11 | 0 | 0 | 324 ± 7 relative chromatographic area | 0.9 ± 0.2 |  |  |  |  |  |  |  |  | 
10-hydroxy-7 -methoxyoleuropein [10-hydroxy-7-methoxyoleuropein isomer 2] | 11 | 164 | 229 | 148 | 34 | 0 | 0 | 241 ± 89 relative chromatographic area | 1.9 ± 0.3 |  |  |  |  |  |  |  |  | 
10-hydroxy-7 -methoxyoleuropein [10-hydroxy-7-methoxyoleuropein isomer 1] | 0 | 61 | 107 | 16 | 0 | 0 | 0 | 107 ± 22 relative chromatographic area | 2 ± 0 |  |  |  |  |  |  |  |  | 
COc1cc(CCC(=O)O)ccc1OS(=O)(=O)O [dihydroferulic acid 4-sulfate] |  |  |  |  |  |  |  |  |  | 190 ± 20 relative chromatographic area | 1.3 ± 0.4 |  |  |  |  |  |  | 
COC(=O)C1=CO[C@H](O)/C(=C/CO)[C@@H]1CC(=O)OCCc1ccc(O)c(O)c1 [10-hydroxyoleuropein aglycone] | 165 | 142 | 15 | 0 | 0 | 0 | 0 | 194 ± 76 relative chromatographic area | 0.7 ± 0.2 |  |  |  |  |  |  |  |  | 
O=C(O)CCCCCCCCC(=O)O [decanedioic acid isomer 1, decanedioic acid] | 0 | 169 | 232 | 167 | 68 | 11 | 0 | 232 ± 48 relative chromatographic area | 2 ± 0 |  |  |  |  |  |  |  |  | 
